Test results from patent US20080318982A1, “Pharmaceutical Combination for the Treatment of Luts” (Pfizer, Inc., priority 2005, published 2008).

System: Anaesthetized Guinea-pig
Assay: Filling cystometry in the anaesthetized guinea-pig (effects on lower urinary tract function)
Format: in vivo
Settings: for % Change in Micturition Pressure / % Change in Threshold Volume: infused continuously for 60 min, vs baseline
Procedure: Animals: Female Hartley guinea pigs (body weight 300-350 grams).
Surgical procedure: The animals are anaesthetized with urethane (1.5 g/kg intraperitoneally) given as a divided dose of 80% initially and 20% 15 min later. Body temperature is maintained at 37±2° C. throughout the experiment. The bladder is exposed through a lower abdominal incision and a polyethylene catheter with a small cuff is inserted in the bladder dome and secured with a purse-string suture. The ureters are then ligatured. The bladder is replaced under the abdominal wall and the catheter is connected via a T-tube to a pressure transducer in order to measure intravesical pressure. The trachea is cannulated. The jugular vein is cannulated to allow administration of test compounds and the femoral artery is cannulated in order to collect plasma sample.
Cystometry: A series of filling cystometry cycles are performed throughout the experimental measurement period to establish baseline parameters and determine drug effect. Before each cystometry cycle, the bladder is emptied manually. Saline at room temperature is then infused continuously into the bladder via the catheter at a flow rate of 600 μL/min until a micturition occurs. The following micturition parameters are measured during each cystometry cycle: Micturition Pressure (MP, the pressure in the bladder during voiding) and Threshold Volume (ThV, volume at which micturition occurs, mL).
Evaluation of drug effect: After the determination of baseline parameters (mean of 3 micturition cycles), test substance or vehicle is administered continuously for 60 minutes. At the end of the drug infusion period, the effect of drug on cystometry parameters is determined by taking an average of the measurements made in two micturition cycles. For combination studies, the respective doses of the test compounds are infused together over a 60 min period following the measurement of baseline parameters.

SMILES | effect on micturition pressure (in words) (Compound A 0.11 mg/kg, 0.32 mg/kg) | % Change in Micturition Pressure (Compound A 0.11 mg/kg) [%] | % Change in Threshold Volume (Compound A 0.11 mg/kg) [%] | % Change in Micturition Pressure (Compound A 0.32 mg/kg) [%] | % Change in Threshold Volume (Compound A 0.32 mg/kg) | % Change in Micturition Pressure (Oxybutynin 3.18 mg/kg) | % Change in Threshold Volume (Oxybutynin 3.18 mg/kg) | effect on micturition pressure (in words) (oxybutynin 3.18 mg/kg)
CCCOc1ccc(S(=O)(=O)N2CCN(CC)CC2)cc1-c1nc2c(CC)nn(Cc3ccccn3)c2c(=O)[nH]1 [Compound A, 3-ethyl-5-[5-(4-ethylpiperazin-1-ylsulphonyl)-2-n-propoxyphenyl]-1-(pyridin-2-yl)methyl-1,6-dihydro-7H-pyrazolo[4,3-d]pyrimidin-7-one] | small reduction | −6.7 | −2.7 | −6 | +11.4% |  |  | 
CCN(CC)CC#CCOC(=O)C(O)(c1ccccc1)C1CCCCC1 (centres unmarked) [Oxybutynin, oxybutynin, reference compound] |  |  |  |  |  | +3.2% | +18.9% | small increase
